In BindingDB's records for doi:10.1021/cb500893q (University of California Berkeley, 2015):

Molecular target: T1, Platelet-activating factor acetylhydrolase IB subunit alpha2 (Mus musculus, UniProt Q61206)
T1 sequence (Q61206 whole entry): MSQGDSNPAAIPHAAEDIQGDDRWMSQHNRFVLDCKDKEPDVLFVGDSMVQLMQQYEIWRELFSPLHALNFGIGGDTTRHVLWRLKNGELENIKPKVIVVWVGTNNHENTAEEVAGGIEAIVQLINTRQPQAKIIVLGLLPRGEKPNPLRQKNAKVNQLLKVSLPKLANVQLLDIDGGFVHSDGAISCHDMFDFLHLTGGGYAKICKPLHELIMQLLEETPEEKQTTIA
Test: Competitive ABPP Assays in Proteomes with FP-alkyne
Settings: pH 7.5
Protocol: Total protein concentrations for each fraction were adjusted to 1 mg/mL in PBS (50 μL total reaction volume). Samples were then subjected to click chemistry by the addition of 1 mM CuSO4 (1 μL of a 50x stock in DMSO), followed by TBTA (3 μL of a 17x stock in 4:1 t-butanol:DMSO), then 25 μM Rh-N3 (1 μL of a 50x stock in DMSO) and 1 mM TCEP (1 μL of a 50x stock in DMSO). Reactions were vortexed, incubated for 1 h at 25 °C, and quenched with 4x SDS-PAGE loading buffer and analyzed by in-gel fluorescence scanning.

Structure (SMILES)	IC50 [µM]
Cc1ccc(S(=O)(=O)N2C(c3ccc(Cl)cc3)CC=C(C(=O)O)C2c2ccc(Br)cc2)cc1 (stereo unspecified) [2-(4-bromophenyl)-6-(4-chlorophenyl)-1-(4-methylbenzenesulfonyl)-1,2,5,6-tetrahydropyridine-3-carboxylic acid (H4)]	1.1
COCCNC(=O)C1=CCC(c2ccc(C)cc2)N(S(=O)(=O)c2ccc(C)cc2)C1c1ccc(C(C)(C)C)cc1 (stereo unspecified) [2-(4-(tert-butyl)phenyl)-N-(2-methoxyethyl)-6-(p-tolyl)-1-tosyl-1,2,5,6-tetrahydropyridine-3-carboxamide (JW1041)]	1.7
Cc1ccc(C2CC=C(C(=O)NC3CCCCC3)C(c3ccc(C(C)(C)C)cc3)N2S(=O)(=O)c2ccc(C)cc2)cc1 (stereo unspecified) [2-(4-(tert-butyl)phenyl)-N-cyclohexyl-6-(p-tolyl)-1-tosyl-1,2,5,6-tetrahydropyridine-3-carboxamide (JW1039)]	> 10
Cc1ccc(C2C(C(=O)O)=CCC(c3ccc(C(C)C)cc3)N2S(=O)(=O)c2ccc(C)cc2)cc1 (stereo unspecified) [1-(4-methylbenzenesulfonyl)-2-(4-methylphenyl)-6-[4-(propan-2-yl)phenyl]-1,2,5,6-tetrahydropyridine-3-carboxylic acid (F5)]	4.5
Cc1ccc(S(=O)(=O)N2C(c3ccc(Cl)c(Cl)c3)CC=C(C(=O)O)C2c2ccc(Br)cc2)cc1 (stereo unspecified) [2-(4-bromophenyl)-6-(3,4-dichlorophenyl)-1-(4-methylbenzenesulfonyl)-1,2,5,6-tetrahydropyridine-3-carboxylic acid (K9)]	1.4
CNC(=O)C1=CCC(c2ccc(C)cc2)N(S(=O)(=O)c2ccc(C)cc2)C1c1ccc(C(C)(C)C)cc1 (stereo unspecified) [2-(4-(tert-butyl)phenyl)-N-methyl-6-(p-tolyl)-1-tosyl-1,2,5,6-tetrahydropyridine-3-carboxamide (JW1036)]	> 10
CCc1ccc(C2CC=C(C(=O)O)C(c3cccc(Cl)c3)N2S(=O)(=O)c2ccc(C)cc2)cc1 (stereo unspecified) [2-(3-chlorophenyl)-6-(4-ethylphenyl)-1-(4-methylbenzenesulfonyl)-1,2,5,6-tetrahydropyridine-3-carboxylic acid (J8)]	9.4
Cc1ccc(C2CC=C(C(=O)O)C(c3cccc(Cl)c3)N2S(=O)(=O)c2ccc(C)cc2)cc1 (stereo unspecified) [2-(3-chlorophenyl)-1-(4-methylbenzenesulfonyl)-6-(4-methylphenyl)-1,2,5,6-tetrahydropyridine-3-carboxylic acid (J13)]	8.2
Cc1ccc(C2CC=C(C(=O)NC3CC3)C(c3ccc(C(C)(C)C)cc3)N2S(=O)(=O)c2ccc(C)cc2)cc1 (stereo unspecified) [2-(4-(tert-butyl)phenyl)-N-cyclopropyl-6-(p-tolyl)-1-tosyl-1,2,5,6-tetrahydropyridine-3-carboxamide (JW1038)]	9.3

Next, values leading:

IC50 [µM]	Structure (SMILES)
0.8	Cc1ccc(C2CC=C(C(=O)O)C(c3ccc(C(C)(C)C)cc3)N2S(=O)(=O)c2ccc(C)cc2)cc1 (stereo unspecified) [2-(4-tert-butylphenyl)-1-(4-methylbenzenesulfonyl)-6-(4-methylphenyl)-1,2,5,6-tetrahydropyridine-3-carboxylic acid (P11)]
7.6	Cc1ccc(C2CC=C(CNC3CC3)C(c3ccc(C(C)(C)C)cc3)N2S(=O)(=O)c2ccc(C)cc2)cc1 (stereo unspecified) [N-((2-(4-(tert-butyl)phenyl)-6-(p-tolyl)-1-tosyl-1,2,5,6-tetrahydropyridin-3-yl)methyl)cyclopropanamine (JW1061)]
4.6	Cc1ccc(C2CC=C(CBr)C(c3ccc(C(C)(C)C)cc3)N2S(=O)(=O)c2ccc(C)cc2)cc1 (stereo unspecified) [5-(bromomethyl)-6-(4-(tert-butyl)phenyl)-2-(p-tolyl)-1-tosyl-1,2,3,6-tetrahydropyridine (JW1058)]
> 10	COC(=O)C1=CCC(c2ccc(C)cc2)N(S(=O)(=O)c2ccc(C)cc2)C1c1ccc(C(C)(C)C)cc1 (stereo unspecified) [Methyl-2-(4-(tert-butyl)phenyl)-6-(p-tolyl)-1-tosyl-1,2,5,6-tetrahydropyridine-3-carboxylate (JW1068)]
2	Cc1ccc(C2CC=C(C(=O)O)C(c3ccc(F)cc3)N2S(=O)(=O)c2ccc(C)cc2)cc1 (stereo unspecified) [2-(4-fluorophenyl)-1-(4-methylbenzenesulfonyl)-6-(4-methylphenyl)-1,2,5,6-tetrahydropyridine-3-carboxylic acid (O8)]
7.5	C=CCNC(=O)C1=CCC(c2ccc(C)cc2)N(S(=O)(=O)c2ccc(C)cc2)C1c1ccc(C(C)(C)C)cc1 (stereo unspecified) [N-allyl-2-(4-(tert-butyl)phenyl)-6-(p-tolyl)-1-tosyl-1,2,5,6-tetrahydropyridine-3-carboxamide (JW1043)]
1.1	Cc1ccc(S(=O)(=O)N2C(c3ccc(C(C)C)cc3)CC=C(C(=O)O)C2c2ccc(F)cc2)cc1 (stereo unspecified) [2-(4-fluorophenyl)-1-(4-methylbenzenesulfonyl)-6-[4-(propan-2-yl)phenyl]-1,2,5,6-tetrahydropyridine-3-carboxylic acid (B6)]
